Structures can show the parent of a compound that is named as a salt.
What was measured:
[1] = system: MAPK p38 phosphorylation; experiment: MAPK p38 Activation Assay (western blot), Panc-1; format: cell-based, human; conditions: at 10 μM, Panc-1 pancreatic cancer cell line; starred symbols = activation
In short: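 Panc-1 cells (KRas G12D) were treated with compound for 6 h at 37 °C, at 10 μM or as serial dilutions for IC50, with 0.3% DMSO. Method 1 used overnight serum-starved cells (0.5% FBS) stimulated with 1.5 ng/ml EGF for 15 min; Method 2 used unstimulated cells in 10% FBS. Phospho-p38 (Thr180/Tyr182) was detected by western blot.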

[2] = system: JNK phosphorylation; experiment: JNK Activation Assay (western blot), Panc-1; format: cell-based, human; conditions: at 10 μM, Panc-1 pancreatic cancer cell line; starred symbols = activation
In short: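 KRas G12C Panc-1 cells treated 6 h at 37 °C with compound at 10 μM (0.3% DMSO), or serial dilutions for IC50. In Method 1 cells were serum-starved overnight (0.5% FBS) then stimulated with 1.5 ng/ml EGF for 15 min; Method 2 used 10% FBS without stimulation. Phospho-JNK (Thr183/Tyr185) measured by western blot.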

Row | Structure (SMILES) | % inh of MAPK p38 in Panc-1 [1] | % inh of JNK in Panc-1 [2]
1 | COC1CCCN(c2nc(-c3nccn3C)nn3cc(-c4ccn(C(C)C)n4)c(C)c23)C1 (racemic) [Compound 4, rac 6-(1-Isopropyl-1H-pyrazol-3-yl)-5-methyl-2-(1-methyl-1H-imidazol-2-yl)-4-(3-(oxo-γ6-methyl)piperidin-1-yl)pyrrolo[2,1-f][1,2,4]triazine] | G* (G* = 75-99% activation) | G* (G* = 75-99% activation)
2 | COCC1CCN(c2nc(-c3nccn3C)nn3cc(-c4ccn(C(C)C)n4)c(-c4ccccc4)c23)C1.Cl (racemic) [Compound 19, rac 6-(1-Isopropyl-1H-pyrazol-3-yl)-4-(3-(methoxymethyl)pyrrolidin-1-yl)-2-(1-methyl-1H-imidazol-2-yl)-5-phenylpyrrolo[2,1-f][1,2,4]triazine hydrochloride salt] | H* (H* ≥ 100% activation) | F* (F* = 31-74% activation)
3 | CO[C@H]1CC[C@@H](Nc2nc(-c3nccn3C)nn3cc(-c4ccn(C(C)C)n4)c(C)c23)C1 (racemic) [Compound 1, rac 6-(1-Isopropyl-1H-pyrazol-3-yl)-N-((1R,3S)-3-methoxycyclopentyl)-5-methyl-2-(1-methyl-1H-imidazol-2-yl)pyrrolo[2,1-f][1,2,4]triazin-4-amine] | H* (H* ≥ 100% activation) | F* (F* = 31-74% activation)
4 | CO[C@H]1CC[C@@H](Nc2nc(-c3nccn3C)nn3cc(-c4ccn(C(C)C)n4)c(-c4ccccc4)c23)C1 (racemic) [Compound 18, rac 6-(1-Isopropyl-1H-pyrazol-3-yl)-N-((1R,3S)-3-methoxycyclopentyl)-2-(1-methyl-1H-imidazol-2-yl)-5-phenylpyrrolo[2,1-f][1,2,4]triazin-4-amine hydrochloride] | H* (H* ≥ 100% activation) | F* (F* = 31-74% activation)
5 | COC[C@@H]1CC[C@@H]1CNc1nc(-c2nccn2C)nn2cc(-c3ccn(C(C)C)n3)c(-c3ccccc3)c12 (racemic) [Compound 20, rac 6-(1-Isopropyl-1H-pyrazol-3-yl)-N-(((1S,2R)-2-(methoxymethyl)cyclobutyl)methyl)-2-(1-methyl-1H-imidazol-2-yl)-5-phenylpyrrolo[2,1-f][1,2,4]triazin-4-amine] | H* (H* ≥ 100% activation) | H* (H* ≥ 100% activation)
6 | COc1cc(Nc2nc(-c3nccn3C)nn3cc(-c4ccn(C(C)C)n4)c(-c4ccccc4)c23)ncn1 [Compound 22, 6-(1-Isopropyl-1H-pyrazol-3-yl)-N-(6-methoxypyrimidin-4-yl)-2-(1-methyl-1H-imidazol-2-yl)-5-phenylpyrrolo[2,1-f][1,2,4]triazin-4-amine] | H* (H* ≥ 100% activation) | H* (H* ≥ 100% activation)
7 | COc1cccc(-c2cn3nc(-c4nccn4C)nc(N[C@@H]4CC[C@@H](OC)C4)c3c2-c2ccccc2)c1Cl.Cl (racemic) [Compound 34, rac 6-(2-Chloro-3-methoxyphenyl)-N-((1R,3R)-3-methoxycyclopentyl)-2-(1-methyl-1H-imidazol-2-yl)-5-phenylpyrrolo[2,1-f][1,2,4]triazin-4-amine hydrochloride] | H (H = 100% inhibition) | H (H = 100% inhibition)
8 | COC[C@@H]1CC[C@@H]1CNc1nc(-c2nccn2C)nn2cc(-c3ccn(C(C)C)n3)c(C)c12 (racemic) [Compound 3, rac 6-(1-Isopropyl-1H-pyrazol-3-yl)-N-(((1S,2R)-2-(methoxymethyl)cyclobutyl)methyl)-5-methyl-2-(1-methyl-1H-imidazol-2-yl)pyrrolo[2,1-f][1,2,4]triazin-4-amine] | H* (H* ≥ 100% activation) | H* (H* ≥ 100% activation)
9 | COC1CCCN(c2nc(-c3nccn3C)nn3cc(-c4ccn(C(C)C)n4)c(-c4ccccc4)c23)C1 (racemic) [Compound 21, rac 6-(1-Isopropyl-1H-pyrazol-3-yl)-4-(3-methoxypiperidin-1-yl)-2-(1-methyl-1H-imidazol-2-yl)-5-phenylpyrrolo[2,1-f][1,2,4]triazine] | H* (H* ≥ 100% activation) | H* (H* ≥ 100% activation)
10 | COc1cccc(Nc2nc(-c3nccn3C)nn3cc(-c4ccn(C(C)C)n4)c(C)c23)n1 [Compound 7, 6-(1-Isopropyl-1H-pyrazol-3-yl)-N-(6-methoxypyridin-2-yl)-5-methyl-2-(1-methyl-1H-imidazol-2-yl)pyrrolo[2,1-f][1,2,4]triazin-4-amine] | H* (H* ≥ 100% activation) | H* (H* ≥ 100% activation)
11 | COCC1CCN(c2nc(-c3nccn3C)nn3cc(-c4ccn(C(C)C)n4)c(C)c23)C1 (racemic) [Compound 2, rac 6-(1-Isopropyl-1H-pyrazol-3-yl)-4-(3-(methoxymethyl)pyrrolidin-1-yl)-5-methyl-2-(1-methyl-1H-imidazol-2-yl)pyrrolo[2,1-f][1,2,4]triazine] | H* (H* ≥ 100% activation) | F* (F* = 31-74% activation)
12 | CC(C)n1ccc(-c2cn3nc(-c4nccn4C)nc(O)c3c2-c2ccccc2)n1 [Compound 17, 6-(1-Isopropyl-1H-pyrazol-3-yl)-2-(1-methyl-1H-imidazol-2-yl)-5-phenylpyrrolo[2,1-f][1,2,4]triazin-4-ol] | 0 (0 = 0% inhibition) | 0 (0 = 0% inhibition)

From US12459951B2, “Compounds that interact with RAS superfamily proteins for treatment of cancers, inflammatory diseases, rasopathies, and fibrotic disease” (SHY Therapeutics, LLC, priority 2022, dated 2025)
